Experimental data as given in US9993570B2, “Radiolabeled tracers for poly (ADP-ribose) polymerase-1 (PARP-1), methods and uses therefor” (Washington University, priority 2014, dated 2018).

Assay: Organ biodistribution of [18F]WC-4-138 in athymic nude mice
Assay type: in vivo
Method: This example illustrates biodistribution of Compound 12 ([^18F]WC-4-138) in mice. Eight week old, female, athymic nude mice (Harlan) were injected via tail vein with [^18F]WC4-138. Mice were sacrificed by cervical dislocation 5 or 30 minutes after IV tracer injection of 30 μCi, 1 or 2 hours after injection of 45 μCi, or 4 hours after injection of 60 μCi of [^18F]WC-4-138. The acetonitrile-soluble fractions of plasma or liver and the control parent compound were separated via reverse-phase high performance liquid chromatography (HPLC) and the radioactivity of each fraction was quantified. The percent parent compound of each sample was calculated as the portion of radioactivity associated with the HPLC fractions that contained the parent compound. Data are presented as mean±SD, n=3.
Four mice were sacrificed at each timepoint, with the exception of the 2 hour timepoint (n=3). Blood, heart, lung, muscle, liver, spleen, fat, adrenal glands, kidney, uterus, ovaries, bone, bone marrow, pancreas, stomach, small intestine, and large intestine were collected from each animal. All organs were blotted to remove excess blood, weighed, and counted in a Beckmann 6000 gamma counter. The percent injected dose per gram (% ID/g) of tissue was determined for each organ.

O=C1NCCn2c(-c3ccc(OCC[18F])cc3)nc3cccc1c32 [[^18F]12]
% ID/g, Adrenals (5 min after IV injection): 11.80 +/− 0.46 % ID/g
% ID/g, Blood (5 min after IV injection): 1.60 +/− 0.21 % ID/g
% ID/g, Bone (5 min after IV injection): 3.40 +/− 0.74 % ID/g
% ID/g, Brain (5 min after IV injection): 0.55 +/− 0.16 % ID/g
% ID/g, Fat (5 min after IV injection): 1.16 +/− 0.49 % ID/g
% ID/g, Heart (5 min after IV injection): 6.57 +/− 0.45 % ID/g
% ID/g, Kidney (5 min after IV injection): 35.63 +/− 3.33 % ID/g
% ID/g, Liver (5 min after IV injection): 12.50 +/− 1.08 % ID/g
% ID/g, Lower Large Intestine (5 min after IV injection): 4.17 +/− 0.42 % ID/g
% ID/g, Lung (5 min after IV injection): 11.89 +/− 0.89 % ID/g
% ID/g, Marrow (5 min after IV injection): 0.06 +/− 0.02 % ID/g
% ID/g, Muscle (5 min after IV injection): 2.05 +/− 0.48 % ID/g
% ID/g, Ovaries (5 min after IV injection): 4.71 +/− 1.21 % ID/g
% ID/g, Pancress (5 min after IV injection): 9.67 +/− 1.98 % ID/g
% ID/g, Small Intestine (5 min after IV injection): 12.64 +/− 1.45 % ID/g
% ID/g, Spleen (5 min after IV injection): 12.47 +/− 6.69 % ID/g
% ID/g, Stomach (5 min after IV injection): 3.17 +/− 0.66 % ID/g
% ID/g, Thyroid (5 min after IV injection): 4.18 +/− 1.18 % ID/g
% ID/g, Upper Large Intestine (5 min after IV injection): 7.84 +/− 1.02 % ID/g
% ID/g, Uterus (5 min after IV injection): 3.44 +/− 2.01 % ID/g
% ID/g, Adrenals (30 min after IV injection): 5.18 +/− 0.94 % ID/g
% ID/g, Blood (30 min after IV injection): 2.07 +/− 0.16 % ID/g
% ID/g, Bone (30 min after IV injection): 4.49 +/− 0.34 % ID/g
% ID/g, Brain (30 min after IV injection): 1.03 +/− 0.11 % ID/g
% ID/g, Fat (30 min after IV injection): 1.22 +/− 0.25 % ID/g
% ID/g, Heart (30 min after IV injection): 3.44 +/− 0.30 % ID/g
% ID/g, Kidney (30 min after IV injection): 21.14 +/− 2.21 % ID/g
% ID/g, Liver (30 min after IV injection): 8.24 +/− 0.62 % ID/g
% ID/g, Lower Large Intestine (30 min after IV injection): 7.43 +/− 0.59 % ID/g
% ID/g, Lung (30 min after IV injection): 5.33 +/− 0.48 % ID/g
% ID/g, Marrow (30 min after IV injection): 0.11 +/− 0.02 % ID/g
% ID/g, Muscle (30 min after IV injection): 2.39 +/− 0.15 % ID/g
% ID/g, Ovaries (30 min after IV injection): 5.31 +/− 0.82 % ID/g
% ID/g, Pancress (30 min after IV injection): 10.27 +/− 1.28 % ID/g
% ID/g, Small Intestine (30 min after IV injection): 13.00 +/− 0.75 % ID/g
% ID/g, Spleen (30 min after IV injection): 26.85 +/− 3.52 % ID/g
% ID/g, Stomach (30 min after IV injection): 3.77 +/− 0.73 % ID/g
% ID/g, Thyroid (30 min after IV injection): 4.03 +/− 0.28 % ID/g
% ID/g, Upper Large Intestine (30 min after IV injection): 14.07 +/− 1.72 % ID/g
% ID/g, Uterus (30 min after IV injection): 4.53 +/− 1.45 % ID/g
% ID/g, Adrenals (60 min after IV injection): 3.51 +/− 1.08 % ID/g
% ID/g, Blood (60 min after IV injection): 2.30 +/− 0.28 % ID/g
% ID/g, Bone (60 min after IV injection): 5.21 +/− 0.40 % ID/g
% ID/g, Brain (60 min after IV injection): 1.24 +/− 0.13 % ID/g
% ID/g, Fat (60 min after IV injection): 1.16 +/− 0.45 % ID/g
% ID/g, Heart (60 min after IV injection): 2.88 +/− 0.23 % ID/g
% ID/g, Kidney (60 min after IV injection): 14.02 +/− 1.84 % ID/g
% ID/g, Liver (60 min after IV injection): 6.50 +/− 0.52 % ID/g
% ID/g, Lower Large Intestine (60 min after IV injection): 10.53 +/− 1.45 % ID/g
% ID/g, Lung (60 min after IV injection): 3.99 +/− 0.29 % ID/g
% ID/g, Marrow (60 min after IV injection): 0.13 +/− 0.04 % ID/g
% ID/g, Muscle (60 min after IV injection): 2.21 +/− 0.31 % ID/g
% ID/g, Ovaries (60 min after IV injection): 4.75 +/− 0.36 % ID/g
% ID/g, Pancress (60 min after IV injection): 9.18 +/− 1.37 % ID/g
% ID/g, Small Intestine (60 min after IV injection): 8.85 +/− 1.49 % ID/g
% ID/g, Spleen (60 min after IV injection): 25.75 +/− 1.95 % ID/g
% ID/g, Stomach (60 min after IV injection): 3.62 +/− 0.37 % ID/g
% ID/g, Thyroid (60 min after IV injection): 3.32 +/− 0.19 % ID/g
% ID/g, Upper Large Intestine (60 min after IV injection): 15.62 +/− 2.31 % ID/g
% ID/g, Uterus (60 min after IV injection): 5.51 +/− 0.79 % ID/g
% ID/g, Adrenals (120 min after IV injection): 2.69 +/− 0.44 % ID/g
% ID/g, Blood (120 min after IV injection): 2.54 +/− 0.13 % ID/g
% ID/g, Bone (120 min after IV injection): 6.56 +/− 0.80 % ID/g
% ID/g, Brain (120 min after IV injection): 1.58 +/− 0.19 % ID/g
% ID/g, Fat (120 min after IV injection): 1.07 +/− 0.11 % ID/g
% ID/g, Heart (120 min after IV injection): 2.68 +/− 0.09 % ID/g
% ID/g, Kidney (120 min after IV injection): 8.77 +/− 0.72 % ID/g
% ID/g, Liver (120 min after IV injection): 4.58 +/− 0.29 % ID/g
% ID/g, Lower Large Intestine (120 min after IV injection): 13.35 +/− 0.87 % ID/g
% ID/g, Lung (120 min after IV injection): 3.17 +/− 0.28 % ID/g
% ID/g, Marrow (120 min after IV injection): 0.07 +/− 0.01 % ID/g
% ID/g, Muscle (120 min after IV injection): 2.07 +/− 0.11 % ID/g
% ID/g, Ovaries (120 min after IV injection): 4.25 +/− 0.52 % ID/g
% ID/g, Pancress (120 min after IV injection): 5.37 +/− 0.64 % ID/g
% ID/g, Small Intestine (120 min after IV injection): 6.62 +/− 0.75 % ID/g
% ID/g, Spleen (120 min after IV injection): 17.19 +/− 1.08 % ID/g
% ID/g, Stomach (120 min after IV injection): 2.56 +/− 0.27 % ID/g
% ID/g, Thyroid (120 min after IV injection): 3.46 +/− 0.10 % ID/g
% ID/g, Upper Large Intestine (120 min after IV injection): 10.28 +/− 0.65 % ID/g
% ID/g, Uterus (120 min after IV injection): 4.13 +/− 0.20 % ID/g
% ID/g, Adrenals (240 min after IV injection): 1.74 +/− 0.34 % ID/g
% ID/g, Blood (240 min after IV injection): 1.61 +/− 0.05 % ID/g
% ID/g, Bone (240 min after IV injection): 9.29 +/− 1.17 % ID/g
% ID/g, Brain (240 min after IV injection): 1.17 +/− 0.05 % ID/g
% ID/g, Fat (240 min after IV injection): 0.62 +/− 0.44 % ID/g
% ID/g, Heart (240 min after IV injection): 1.67 +/− 0.06 % ID/g
% ID/g, Kidney (240 min after IV injection): 3.67 +/− 0.54 % ID/g
% ID/g, Liver (240 min after IV injection): 2.43 +/− 0.25 % ID/g
% ID/g, Lower Large Intestine (240 min after IV injection): 7.17 +/− 0.50 % ID/g
% ID/g, Lung (240 min after IV injection): 2.03 +/− 0.43 % ID/g
% ID/g, Marrow (240 min after IV injection): 0.04 +/− 0.01 % ID/g
% ID/g, Muscle (240 min after IV injection): 1.35 +/− 0.09 % ID/g
% ID/g, Ovaries (240 min after IV injection): 2.00 +/− 0.41 % ID/g
% ID/g, Pancress (240 min after IV injection): 2.75 +/− 0.44 % ID/g
% ID/g, Small Intestine (240 min after IV injection): 3.04 +/− 0.25 % ID/g
% ID/g, Spleen (240 min after IV injection): 9.80 +/− 1.01 % ID/g
% ID/g, Stomach (240 min after IV injection): 1.20 +/− 0.08 % ID/g
% ID/g, Thyroid (240 min after IV injection): 3.23 +/− 0.49 % ID/g
% ID/g, Upper Large Intestine (240 min after IV injection): 4.33 +/− 0.57 % ID/g
% ID/g, Uterus (240 min after IV injection): 2.05 +/− 0.31 % ID/g
